Data as given in US10087148B2, “Quinazolines as biogenic amine transport modulators” (THE UNITED STATES OF AMERICA AS REPRESENTED BY THE …, priority 2014, dated 2018).

Key:
[1] = molecular target: T1, dopamine transporter (DAT) (Rattus norvegicus (Rat), UniProt P23977); assay: [3H]dopamine (DA) uptake inhibition in rat brain (caudate) synaptosomes; type: biochemical
[2] = molecular target: serotonin transporter (SERT) (Rattus norvegicus (Rat), UniProt P31652); assay: [3H]serotonin (5-HT) uptake inhibition in rat brain synaptosomes; type: biochemical; conditions: for IC50 / Emax: mean ± S.D., n = 3; for Emax: read-out: SERT Uptake Emax
Protocol: Uptake inhibition assay for the serotonin transporter was conducted in rat brain synaptosomes as described elsewhere with minor modifications (Rothman et al., Synapse 39, 32-41 (2001)). Freshly removed whole brain minus cerebellum and caudate was homogenized in 10% ice-cold sucrose with 12 strokes of a hand-held Potter-Elvehjem homogenizer followed by centrifugation at 1000×g for 10 min. The supernatants were saved on ice and used immediately. Transporter activity at SERT was assessed using 5 nM [^3H]serotonin. The assay buffer was Krebs-phosphate buffer containing 154.4 mM NaCl, 2.9 mM KCl, 1.1 mM CaCl2, 0.83 mM MgCl2, 5 mM glucose, 1 mg/mL ascorbic acid, and 50 μM pargyline. […] Uptake inhibition assays were conducted at 25° C. and were initiated by adding 100 μL of tissue to 900 μL assay buffer containing test drug and [^3H]serotonin. Test drugs were diluted in assay buffer containing 1 mg/mL bovine serum albumin. Nonspecific uptake was measured by incubating in the presence of 10 μM indatraline. The reactions were stopped after 30 min by rapid vacuum filtration with a cell harvester (BRANDEL) over GF/B filters (Whatman) presoaked in wash buffer maintained at 25° C. (10 mM Tris-HCl, pH 7.4/150 mM NaCl). Filters were rinsed with 6 mL wash buffer and retained tritium was quantified by a MicroBeta liquid scintillation counter (PerkinElmer) after overnight extraction in 0.6 mL of liquid scintillation cocktail (Cytoscint, ICN). The data from three experiments were pooled and fit to a dose-response curve equation (using Kaleidagraph), to yield an Emax and EC50 value.

[3] = molecular target: norepinephrine transporter (NET) (Rattus norvegicus, UniProt Q63380); assay: [3H]norepinephrine (NE) uptake inhibition in rat brain synaptosomes; type: biochemical; conditions: for Emax: read-out: NET Uptake Emax; for IC50: read-out: NET Uptake IC50, mean ± S.D., n = 3
Protocol: Uptake inhibition assay for the norepinephrine transporter was conducted in rat brain synaptosomes as described elsewhere with minor modifications (Rothman et al., Synapse 39, 32-41 (2001)). Freshly removed whole brain minus cerebellum and caudate was homogenized in 10% ice-cold sucrose with 12 strokes of a hand-held Potter-Elvehjem homogenizer followed by centrifugation at 1000×g for 10 minutes. The supernatants were saved on ice and used immediately. Transporter activity at NET was assessed using 10 nM [^3H]norepinephrine. The assay buffer was Krebs-phosphate buffer containing 154.4 mM NaCl, 2.9 mM KCl, 1.1 mM CaCl2, 0.83 mM MgCl2, 5 mM glucose, 1 mg/mL ascorbic acid, and 50 μM pargyline. […] Uptake inhibition assays were conducted at 37° C. and were initiated by adding 100 μL of tissue to 900 μL assay buffer containing test drug and [^3H]norepinephrine. Test drugs were diluted in assay buffer containing 1 mg/mL bovine serum albumin. Nonspecific uptake was measured by incubating in the presence of 10 μM indatraline. The reactions were stopped after 10 minutes by rapid vacuum filtration with a cell harvester (BRANDEL) over GF/B filters (Whatman) presoaked in wash buffer maintained at 25° C. (10 mM Tris-HCl, pH 7.4/150 mM NaCl). Filters were rinsed with 6 mL wash buffer and retained tritium was quantified by a MicroBeta liquid scintillation counter (PerkinElmer) after overnight extraction in 0.6 mL of liquid scintillation cocktail (Cytoscint, ICN). The data from three experiments were pooled and fit to a dose-response curve equation (using Kaleidagraph), to yield an Emax and EC50 value.

[4] = molecular target: T1, dopamine transporter (DAT); assay: Dopamine transporter-mediated [3H]MPP+ release (d-amphetamine-induced, shift experiments) in rat caudate synaptosomes; type: biochemical; conditions: [3H]MPP+ release; for Apparent Kc: [Blocker]/((EC50-2/EC50-1) − 1); for Emax: read-out: d-Amphetamine Emax in presence of blocker, blocker concentration per row, mean ± S.D., n = 3
DAT [5] = molecular target: T2, DAT (Rattus norvegicus (Rat), UniProt P23977); assay: Inhibition of [3H]WIN35428 binding to rat caudate DAT
Protocol: All of the test compounds were synthesized as described herein. […] The data from three experiments were pooled and fit to a dose-response curve equation (using KaleidaGraph; Synergy Software, Reading, Pa.) to yield an Emax and IC50 value. […] Selected compounds were also tested for their ability to inhibit [^3H]WIN35428 binding to rat caudate DAT.

DAT [6] = molecular target: T2, DAT; assay: d-amphetamine-induced, DAT-mediated [3H]DA release (shift experiments); type: biochemical
[7] = mean ± S.D., n = 3, read-out: DAT Uptake Emax
[8] = values in Table 9, read-out: Emax for DAT Uptake Inhibition
[9] = [3H]WIN35428, mean ± S.D., n = 3
[10] = [3H]WIN35428, mean ± S.D., n = 3, unit as printed in head (text gives 1100 nM where table prints 1.1)
[11] = rat brain synaptosomes, 5 nM [3H]serotonin, mean ± SD

T1 sequence (P23977 whole entry): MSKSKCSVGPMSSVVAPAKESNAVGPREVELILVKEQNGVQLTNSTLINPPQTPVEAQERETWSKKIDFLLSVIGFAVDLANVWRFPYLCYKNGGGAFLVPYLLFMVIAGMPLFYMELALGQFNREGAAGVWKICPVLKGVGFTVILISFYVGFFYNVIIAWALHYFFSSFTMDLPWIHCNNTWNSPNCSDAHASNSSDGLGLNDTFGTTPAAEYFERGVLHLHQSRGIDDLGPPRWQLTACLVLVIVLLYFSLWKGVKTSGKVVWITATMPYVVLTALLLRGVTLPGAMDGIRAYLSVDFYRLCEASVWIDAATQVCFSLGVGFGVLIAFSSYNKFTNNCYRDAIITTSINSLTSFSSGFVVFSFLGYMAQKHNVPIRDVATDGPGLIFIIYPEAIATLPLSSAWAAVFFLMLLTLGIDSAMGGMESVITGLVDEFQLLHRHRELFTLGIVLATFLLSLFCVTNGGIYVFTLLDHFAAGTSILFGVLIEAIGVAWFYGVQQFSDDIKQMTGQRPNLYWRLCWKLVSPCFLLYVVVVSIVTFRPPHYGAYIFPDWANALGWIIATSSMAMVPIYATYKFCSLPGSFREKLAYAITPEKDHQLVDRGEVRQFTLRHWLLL
T2 sequence (P23977 whole entry): as above
Chain of serotonin transporter (SERT) (P31652 whole entry): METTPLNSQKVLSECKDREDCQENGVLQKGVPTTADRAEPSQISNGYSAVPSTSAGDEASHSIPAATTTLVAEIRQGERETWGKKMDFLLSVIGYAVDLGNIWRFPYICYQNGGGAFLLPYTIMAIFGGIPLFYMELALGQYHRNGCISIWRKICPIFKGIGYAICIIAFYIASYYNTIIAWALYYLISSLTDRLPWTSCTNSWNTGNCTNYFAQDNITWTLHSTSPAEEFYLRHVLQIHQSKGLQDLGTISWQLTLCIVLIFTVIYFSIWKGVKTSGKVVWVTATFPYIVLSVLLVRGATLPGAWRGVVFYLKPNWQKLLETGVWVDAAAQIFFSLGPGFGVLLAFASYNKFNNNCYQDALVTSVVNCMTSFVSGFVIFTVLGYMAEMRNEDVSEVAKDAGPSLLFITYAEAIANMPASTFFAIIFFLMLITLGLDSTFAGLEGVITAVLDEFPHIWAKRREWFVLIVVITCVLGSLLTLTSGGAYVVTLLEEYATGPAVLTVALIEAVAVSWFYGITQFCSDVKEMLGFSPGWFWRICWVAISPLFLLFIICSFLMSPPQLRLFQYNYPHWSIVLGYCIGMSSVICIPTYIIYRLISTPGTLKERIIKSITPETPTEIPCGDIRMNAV
Chain of norepinephrine transporter (NET) (Q63380 1-617): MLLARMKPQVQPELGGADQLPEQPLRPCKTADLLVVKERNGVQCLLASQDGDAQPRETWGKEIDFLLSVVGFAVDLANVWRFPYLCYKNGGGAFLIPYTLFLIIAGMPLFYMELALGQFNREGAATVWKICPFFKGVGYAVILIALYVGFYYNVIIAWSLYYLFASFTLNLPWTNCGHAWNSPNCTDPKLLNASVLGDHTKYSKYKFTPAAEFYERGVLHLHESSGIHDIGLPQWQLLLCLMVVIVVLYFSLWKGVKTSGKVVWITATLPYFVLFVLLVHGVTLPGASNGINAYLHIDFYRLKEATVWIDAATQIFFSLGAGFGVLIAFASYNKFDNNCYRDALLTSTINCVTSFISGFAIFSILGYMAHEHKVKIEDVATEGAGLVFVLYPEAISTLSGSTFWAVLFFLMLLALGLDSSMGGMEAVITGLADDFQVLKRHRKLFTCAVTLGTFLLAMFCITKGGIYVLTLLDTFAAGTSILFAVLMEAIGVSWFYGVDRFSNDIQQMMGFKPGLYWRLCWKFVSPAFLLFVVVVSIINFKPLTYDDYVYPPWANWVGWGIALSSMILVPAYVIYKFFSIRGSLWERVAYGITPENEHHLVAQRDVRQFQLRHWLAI

SMILES	Emax [1, 7]	Emax [1, 8]	Emax [2]	Emax [3]	IC50 [3]	Apparent Kc [4]	Emax [4]	Emax (DAT [5]; [9])	IC50 (DAT [5]; [10])	other results
c1ccc(C(CNc2nc(-c3cccnc3)nc3ccccc23)c2ccccc2)cc1 [SRI-29072]	71 ± 3%	71%	56 ± 9%	62 ± 5%	5.85 ± 1.75 µM	25830 nM	96 ± 3%	77 ± 2%	2.7 ± 0.3 µM	IC50 ([1]; mean ± S.D., n = 3): 0.212 ± 0.049 µM; IC50 [2]: 6.38 ± 2.64 µM
Cc1cc2nccn2cc1-c1nc(NCC(c2ccccc2)c2ccc[nH]2)c2ccccc2n1 (stereo not drawn) [SRI-31040]	69 ± 1%	69%	54 ± 2%	70 ± 4%	0.011 ± 0.004 µM	55 nM	105 ± 3%	91 ± 7%	3.74 ± 1.1 µM	–
CN(C)c1ccc(-c2nc(NCC(c3ccccc3)c3ccccc3)c3ccccc3n2)cc1 [Compound 51, 2-(4-(dimethylamino)phenyl)-N-(2,2-diphenylethyl)quinazolin-4-amine]	70 ± 3%	70%	44 ± 4%	68 ± 7%	0.143 ± 0.061 µM	–	101 ± 2%	100 ± 3%	–	DAT binding IC50 weaker than IC50 for inhibition of DAT uptake (DAT [5]; binding IC50 / uptake IC50): 155 fold
c1ccc(C(CCNc2nc(-c3ccc4[nH]ccc4c3)nc3ccccc23)c2ccccc2)cc1 [SRI-29213]	81 ± 3%	81%	43 ± 4%	77 ± 3%	0.346 ± 0.059 µM	886 nM	78 ± 2%	94 ± 2%	0.2 µM	IC50 ([1]; mean ± S.D., n = 3): 0.016 ± 0.004 µM; IC50 [2]: 0.089 ± 0.051 µM; Apparent Kc (DAT [6]; [Blocker]/((EC50-2/EC50-1) − 1)): 6.7 µM; Emax (DAT [6]; read-out: d-Amphetamine Emax in presence of blocker, blocker concentration per row, mean ± S.D., n = 3): 71 ± 3%
CN(C)c1ncc(-c2nc(NCCC(c3ccccc3)c3ccccc3)c3ccccc3n2)cn1 [SRI-29212]	67 ± 4%	67%	50 ± 7%	64 ± 5%	8.13 ± 2.27 µM	64580 nM	103 ± 2%	72 ± 4%	2.2 ± 0.5 µM	IC50 ([1]; mean ± S.D., n = 3): 0.672 ± 0.204 µM; IC50 [2]: 3.8 ± 1.64 µM
CS(=O)(=O)Nc1ccc(-c2nc(NCC(c3ccccc3)c3ccccc3)c3ccccc3n2)cc1 [Compound 50, N-(4-(4-((2,2-diphenylethyl)amino)quinazolin-2-yl)phenyl)methanesulfonamide]	70 ± 2%	70%	56 ± 2%	71 ± 2%	0.09 ± 0.015 µM	–	102 ± 2%	65 ± 6%	–	–
c1ccc(C(CNc2nc(-c3cnc4nccn4c3)nc3ccccc23)c2ccncc2)cc1 (stereo not drawn) [SRI-30810]	64 ± 1%	64%	51 ± 2%	69 ± 2%	0.06 ± 0.01 µM	1200 nM	104 ± 5%	25 ± 2%	0.82 ± 0.36 µM	–
c1ccc(C(CNc2nc(-c3ccc4nccn4c3)nc3ccccc23)c2ccc[nH]2)cc1 (stereo not drawn) [SRI-30826]	64 ± 2%	64%	56 ± 2%	81 ± 2%	0.088 ± 0.015 µM	1600 nM	105 ± 4%	42 ± 3%	1.28 ± 0.4 µM	–
Cc1cc2nccn2cc1-c1nc(NCC(c2ccccc2)c2ccccc2)c2ccccc2n1 [SRI-30827]	63 ± 2%	63%	58 ± 3%	67 ± 3%	0.021 ± 0.007 µM	267 nM	104 ± 3%	79 ± 3%	1.99 ± 0.33 µM	–
CS(=O)(=O)Nc1ccc(-c2nc(NCC(c3ccccc3)c3ccncc3)c3ccccc3n2)cc1 (stereo not drawn) [Compound 10, N-(4-(4-((2-phenyl-2-(pyridin-4-yl)ethyl)amino)quinazolin-2-yl)phenyl)methanesulfonamide]	–	–	56 ± 1%	76 ± 2%	0.044 ± 0.006 µM	–	103 ± 3%	–	–	DAT Uptake Emax ([1]; mean ± S.D., n = 3): 71 ± 1%; DA Uptake Emax ([1]; rat caudate synaptosomes, 5 nM [3H]dopamine, mean ± SD): 71 ± 1 % I; 5HT Uptake Emax [2, 11]: 56 ± 1 % I; EC50 [2, 11]: 0.0087 ± 0.0009 µM; NE Uptake Emax ([3]; rat brain synaptosomes, 10 nM [3H]norepinephrine, mean ± SD): 76 ± 2 % I; EC50 ([3]; read-out: NE Uptake EC50, rat brain synaptosomes, 10 nM [3H]norepinephrine, mean ± SD): 0.044 ± 0.006 µM; Emax at 0.125 µM ([4]; read-out: D-Amphetamine Emax in presence of compound, compound concentration 125 nM, mean ± SD): 103 ± 3%; DAT Binding Emax (DAT [5]; [9]): 52 ± 6%
Cc1cc2nccn2cc1-c1nc(NCC(O)(c2ccccc2)c2ccccc2)c2ccccc2n1 [SRI-31143]	69 ± 1%	67%	51 ± 2%	69 ± 4%	0.016 ± 0.005 µM	46 nM	104 ± 4%	52 ± 8%	3.39 ± 1.99 µM	–
Cc1cc2nccn2cc1-c1nc(NCC(c2ccccc2)c2ccncc2)c2ccccc2n1 (stereo not drawn) [SRI-31142]	72 ± 2%	72%	48 ± 1%	61 ± 2%	0.017 ± 0.004 µM	400 nM	103 ± 3%	92 ± 4%	2.34 ± 0.45 µM	–
c1ccc(C(CNc2nc(-c3ccc4ncnn4c3)nc3ccccc23)c2ccccc2)cc1 [SRI-30522]	63 ± 1%	63%	35 ± 3%	40 ± 5%	0.086 ± 0.055 µM	–	105 ± 4%	–	–	DAT Binding Emax (DAT [5]; [9]): Inactive; DAT Binding IC50 (DAT [5]; [10]): Inactive
c1ccc(C(CNc2nc(-c3ccc4[nH]ccc4c3)nc3ccccc23)c2ccccc2)cc1 [SRI-29155]	74 ± 1%	74%	54 ± 2%	70 ± 3%	0.29 ± 0.052 µM	456 nM	94 ± 2%	87 ± 4%	0.9 ± 0.2 µM	–
c1ccc(C(CCNc2nc(-c3cccnc3)nc3ccccc23)c2ccccc2)cc1 [SRI-29070]	66 ± 4%	66%	48 ± 3%	64 ± 10%	1.74 ± 1.15 µM	7050 nM	98 ± 1%	71 ± 4%	1.8 ± 0.4 µM	IC50 ([1]; mean ± S.D., n = 3): 0.174 ± 0.058 µM; IC50 [2]: 0.699 ± 0.164 µM
CN(C)c1ccc(-c2nc(NCC(c3ccccc3)c3ccccc3)c3ccccc3n2)cn1 [SRI-29779]	63 ± 3%	63%	51 ± 2%	71 ± 6%	0.147 ± 0.063 µM	912 nM	99 ± 2%	83 ± 3%	1.2 ± 0.2 µM	–
c1ccc(C(CNc2nc(-c3cnc4nccn4c3)nc3ccccc23)c2ccccc2)cc1 [SRI-29991]	68 ± 1%	68%	51 ± 1%	69 ± 2%	0.063 ± 0.009 µM	-1070 nM	102 ± 2%	18 ± 4%	1.22 ± 1.12 µM	–
